In patent US7517889B2, “2,6-substituted-4-monosubstitutedamino-pyrimidine as prostaglandin D2 receptor antagonists” (Aventis Pharmaceuticals, Inc., priority 2004, dated 2009):
Counter-ions that a name gives are not always drawn.

target: T1, DP receptor (Homo sapiens, UniProt Q13258); assay: SPA cAMP assay in human LS174 T cells (human DP functional assay); assay type: cell-based; details: inhibition of PGD2 (15 nM final) stimulated cAMP, LS174T cells expressing endogenous DP receptor
T1 construct: the human cell line LS174T, which expresses the endogenous DP receptor; endogenous in cells; host or cells: LS174T human cell line
T1 sequence (Q13258 1-359): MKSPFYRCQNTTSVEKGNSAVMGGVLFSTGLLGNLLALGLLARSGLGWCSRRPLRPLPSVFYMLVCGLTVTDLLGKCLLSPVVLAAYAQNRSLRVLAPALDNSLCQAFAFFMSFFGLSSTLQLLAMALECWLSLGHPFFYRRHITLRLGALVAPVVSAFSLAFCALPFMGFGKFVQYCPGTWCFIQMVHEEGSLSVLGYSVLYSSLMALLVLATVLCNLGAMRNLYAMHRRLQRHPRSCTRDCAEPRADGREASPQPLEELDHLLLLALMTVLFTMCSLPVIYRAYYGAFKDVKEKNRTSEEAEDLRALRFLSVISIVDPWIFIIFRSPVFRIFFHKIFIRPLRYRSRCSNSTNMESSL
Description: The inhibitory effects of the compounds according to the invention are assessed in a human DP functional assay. A cAMP assay is employed using the human cell line LS174T, which expresses the endogenous DP receptor.
Protocol for SPA cAMP Assay in Human LS174 T Cells
• 1) Add equal volumes of tracer, antiserum and SPA anti-rabbit reagent to a bottle, ensuring that a sufficient volume of this mixture is prepared for the desired number of wells (150 μL/well). • 2) Mix thoroughly. • 3) This immunoreagent solution should be freshly prepared before each assay and not re-used.
Add 50 μL of […] IBMX into 100 mL PBS to make a final concentration of 100 μM and sonicate at 30° C. for 20 minutes.
Before each assay, it is freshly prepared. Add 3 μL of 10 mM stock solution to 20 mL DMSO, mix it thoroughly, and transfer 10 mL to 40 mL PBS.
Compound dilution is carried out in Biomex 2000 (Beckman) using Method 1_cAMP DP 11 points.
5 μL of each compound from the 10 mM stock compound plates is transferred to the wells of a 96-well plate respectively as below.
Fill the plate with 45 μL of DMSO except column 7 is filled with 28 μL DMSO. Pipette column 1 thoroughly, and transfer 12 μL into column 7 parallel. Perform 1:10 serial dilution from column 1 to column 6 and from column 7 to column 11 by transfer 5 μL to 45 μL DMSO to make following concentrations:
Fill a new 96-well plate with 247.5 μL of compound dilution buffer. Transfer 2.5 μL of serially diluted compounds from above plate to the new plate (1:100 dilution) as following:
Cell Growth • 1. […] Remove growth medium from cells. Cells in T165 flask are washed twice with 4 mL Trypsin followed by incubation at 37° C. and 5% CO2 for 3 minutes. • 4. Add 10 mL of medium and pipette thoroughly to separate the cells and count the cells. • 5. […] Assay Procedure Day 1 • Seed 45,000 cells/well in 200 μL medium in 96-well plates. Incubate the cell plate at 37° C., 5% CO2 and 95% humidity overnight. Day 2 • 1. Perform compound dilution. • 2. Prepare assay buffer, lysis buffer 1 & 2, PGD2 and standard. • 3. Aspirate media from the cells and add 100 μL of compound solution using Zymark Sciclone-ALH/FD protocol cAMP DP. • 4. Incubate the cells at 37° C., 5% CO2 and 95% humidity for 15 minutes. • 5. […] Aspirate media from the cells and add 50 μL of lysis buffer 1 using Zymark protocol cAMP DP lysis, and incubate at room temperature with shaking for 30 minutes. • 7. Add 150 μL immunoreagent to all wells (a total volume of 200 μL/well). • 8. Seal the plates and shake for 2 minutes, put into the chamber of the Wallac microtitre plate μ scintillation counter for 16 hours. […] Data Processing Set up standard curve of cAMP versus CPM.
The cAMP concentrations (pmol/mL) of unknown samples are calculated from a standard curve of cAMP versus CPM. % inhibition is calculated using the following formula: […]

Row | IC50 | SMILES
1 | 0.55 nM | COc1ccc(CCNc2cc(-c3ccc(CO)s3)nc(OC)n2)cc1 [Example 9(a), (5-{2-Methoxy-6-[2-(4-methoxy-phenyl)-ethylamino]-pyrimidin-4-yl}-thiophen-2-yl)-methanol]
2 | 4650 nM | COc1ccc(CCNc2cc(-c3cccc(OC)c3)nc(N(C)C)n2)cc1 [Example 19, 6-(3-Methoxy-phenyl)-N*4*-[2-(4-methoxy-phenyl)-ethyl]-N*2*,N*2*-dimethyl-pyrimidine-2,4-diamine hydrochloride]
3 | 149 nM | CCOC(=O)c1cccc(-c2cc(NCCc3ccc(Cl)cc3Cl)nc(OC)n2)c1 [Example 77, 3-{6-[2-(2,4-Dichloro-phenyl)-ethylamino]-2-methoxy-pyrimidin-4-yl}-benzoic acid ethyl ester]
4 | 1 nM | COc1nc(NCCc2ccc(Cl)cc2Cl)cc(-c2cccc(C(C)C(=O)O)c2)n1 (stereo not drawn) [Example 49(a), 2-(3-{6-[2-(2,4-Dichloro-phenyl)-ethylamino]-2-methoxy-pyrimidin-4-yl}-phenyl)-propionic acid hydrochloride]
5 | 6.6 nM | CCNS(=O)(=O)c1cccc(-c2cc(NCCc3ccc(OC)cc3)nc(OC)n2)c1 [Example 4(b), N-Ethyl-3-{2-methoxy-6-[2-(4-methoxy-phenyl)-ethylamino]-pyrimidin-4-yl}-benzenesulfonamide]
6 | 281 nM | COc1nc(NCCc2ccc(Cl)cc2Cl)cc(-c2cccc(C(C)(C)C(=O)N3CCOCC3)c2)n1 [Example 95(c), 2-(3-{6-[2-(2,4-Dichloro-phenyl)-ethylamino]-2-methoxy-pyrimidin-4-yl}-phenyl)-2-methyl-1-morpholin-4-yl-propan-1-one]
7 | 1.7 nM | COc1ccc(CCNc2cc(-c3ccsc3CO)nc(OC)n2)cc1 [Example 9(b), (3-{2-Methoxy-6-[2-(4-methoxy-phenyl)-ethylamino]-pyrimidin-4-yl}-thiophen-2-yl)-methanol]
8 | 55 nM | COc1ccc(CCNc2cc(-c3nnc(C)o3)nc(OC)n2)cc1 [Example 44, [2-Methoxy-6-(5-methyl-[-1,3,4]oxadiazol-2-yl)-pyrimidin-4-yl]-[2-(4-methoxy-phenyl)-ethyl]-amine]
9 | 3.7 nM | COc1ccc(CCNc2cc(-c3cccc(-c4nnc(C)[nH]4)c3)nc(OC)n2)cc1 [Example 37, {2-Methoxy-6-[3-(5-methyl-2H-[1,2,4]triazol-3-yl)-phenyl]-pyrimidin-4-yl}-[2-(4-methoxy-phenyl)-ethyl]-amine]
10 | 2.6 nM | COc1ccc(CCNc2cc(-c3cccc(-c4nc(C)no4)c3)nc(OC)n2)cc1 [Example 36, {2-Methoxy-6-[3-(3-methyl-[1,2,4]oxadiazol-5-yl)-phenyl]-pyrimidin-4-yl}-[2-(4-methoxy-phenyl)-ethyl]-amine]
11 | < 1 nM | COc1nc(NCCc2ccc(Cl)cc2Cl)cc(-c2cccc(C3(C(=O)NS(C)(=O)=O)CCOCC3)c2)n1 [Example 80(b), N-[4-(3-{6-[2-(2,4-Dichloro-phenyl)-ethylamino]-2-methoxy-pyrimidin-4-yl}-phenyl)-tetrahydro-pyran-4-carbonyl]-methanesulfonamide]
12 | 0.3 nM | COc1nc(NCCc2c(F)cccc2Cl)cc(-c2cccc(OCc3noc(=O)[nH]3)c2)n1 [Example 34(c), 3-(3-{6-[2-(2-Chloro-6-fluoro-phenyl)-ethylamino]-2-methoxy-pyrimidin-4-yl}-phenoxymethyl)-4H-[1,2,4]oxadiazol-5-one hydrochloride]
13 | 23 nM | COc1nc(NCC2OCCc3ccccc32)cc(-c2cccc(C(C)(C)C(=O)O)c2)n1 (stereo not drawn) [Example 91, 2-(3-{6-[(Isochroman-1-ylmethyl)-amino]-2-methoxy-pyrimidin-4-yl}-phenyl)-2-methyl-propionic acid]
14 | 71 nM | CC(C)(C(=O)O)c1cccc(-c2cc(NCCc3ccc(Cl)cc3Cl)nc(CO)n2)c1 [Example 86, 2-(3-{6-[2-(2,4-dichloro-phenyl)-ethylamino]-2-hydroxymethyl-pyrimidin-4-yl}-phenyl)-2-methyl-propionic acid]
15 | 1 nM | COc1nc(NCCc2c(F)cccc2Cl)cc(-c2cccc(Cc3noc(=O)[nH]3)c2)n1 [Example 34(b), 3-(3-{6-[2-(2-Chloro-6-fluoro-phenyl)-ethylamino]-2-methoxy-pyrimidin-4-yl}-benzyl)-4H-[1,2,4]oxadiazol-5-one hydrochloride]
16 | 64 nM | COc1ccc(CCNc2cc(-c3cccc4cnccc34)nc(OC)n2)cc1 [Example 8(g), (6-Isoquinolin-5-yl-2-methoxy-pyrimidin-4-yl)-[2-(4-methoxy-phenyl)-ethyl]-amine]
17 | 110 nM | COc1nc(NCCc2ccc(Cl)cc2Cl)cc(-c2ccc(Cl)c(C(C)(C)O)c2)n1 [Example 98, 2-(2-Chloro-5-{6-[2-(2,4-dichloro-phenyl)-ethylamino]-2-methoxy-pyrimidin-4-yl}-phenyl)-propan-2-ol]
18 | 2.3 nM | COc1ccc(CCNc2cc(-c3ccc(-c4cnco4)s3)nc(OC)n2)cc1 [Example 11(a), [2-Methoxy-6-(5-oxazol-5-yl-thiophen-2-yl)-pyrimidin-4-yl]-[2-(4-methoxy-phenyl)-ethyl]-amine]
19 | 0.4 nM | COc1ccc(CCNc2cc(-c3ccc(F)c(C(=O)O)c3)nc(OC)n2)cc1 [Example 20(a), 2-Fluoro-5-{2-methoxy-6-[2-(4-methoxy-phenyl)-ethylamino]-pyrimidin-4-yl}-benzoic acid]
20 | 219 nM | CCc1nc(NCCc2ccc(OC)cc2)cc(-c2cccc(OC)c2)n1 [Example 18, [2-Ethyl-6-(3-methoxy-phenyl)-pyrimidin-4-yl]-[2-(4-methoxy-phenyl)-ethyl]-amine]
21 | 17 nM | COc1ccc(CCNc2cc(-c3ccccc3O)nc(OC)n2)cc1 [Example 35(r), 2-{2-Methoxy-6-[2-(4-methoxy-phenyl)-ethylamino]-pyrimidin-4-yl}-phenol]
22 | 0.1 nM | CCS(=O)(=O)NC(=O)C(F)(F)c1cccc(-c2cc(NCCc3ccc(Cl)cc3Cl)nc(OC)n2)c1 [Example 81(b), Ethanesulfonic acid [2-(3-{6-[2-(2,4-dichloro-phenyl)-ethylamino]-2-methoxy-pyrimidin-4-yl}-phenyl)-2,2-difluoro-acetyl]-amide]
23 | 2.7 nM | COCc1nc(NCCc2ccc(Cl)cc2Cl)cc(-c2cccc(C(C)(C)C(=O)O)c2)n1 [Example 85, 2-(3-{6-[2-(2,4-Dichloro-phenyl)-ethylamino]-2-methoxymethyl-pyrimidin-4-yl}-phenyl)-2-methyl-propionic acid]
24 | 2.3 nM | COc1ccc(CCNc2cc(-c3ccc(C(N)=O)cc3)nc(OC)n2)cc1 [Example 10(e), 4-{2-Methoxy-6-[2-(4-methoxy-phenyl)-ethylamino]-pyrimidin-4-yl}-benzamide]

Row | SMILES | IC50
25 | COc1nc(NCCc2ccc(F)cc2F)cc(-c2cccc(C(=O)O)c2)n1 [Example 7, 3-{6-[2-(2,4-Difluoro-phenyl)-ethylamino]-2-methoxy-pyrimidin-4-yl}-benzoic acid] | 0.8 nM
26 | CCNC(=O)Oc1cccc(-c2cc(NCCc3ccc(Cl)cc3Cl)nc(OC)n2)c1 [Example 60, Ethyl-carbamic acid 3-{6-[2-(2,4-dichloro-phenyl)-ethylamino]-2-methoxy-pyrimidin-4-yl}-phenyl ester] | 0.5 nM
27 | COc1nc(NCCc2c(F)cccc2Cl)cc(-c2cccc(C=O)c2)n1 [Example 35(v), 3-{6-[2-(2-chloro-6-fluoro-phenyl)-ethylamino]-2-methoxy-pyrimidin-4-yl}-benzaldehyde] | 3.6 nM
